Assay results published in PubChem BioAssay AID1963971 (Molecular Pharmacology Branch, DTP, NCI, 2024).

Test system: 953936-095-R-J2-PDC spheroids with HUVEC/MSC, viability
Assay: Anticancer human tumor 953936-095-R-J2-PDC patient-derived cervical squamous cell carcinoma cell line growth inhibition [PI3K]
Settings: for IC50: curve of first compound; for viability, T/C: stronger effect = lower value
From the text: Combinatorial screen of targeted agents with the PI3K inhibitors inavolisib, alpelisib, duvelisib, and copanlisib in multi-cell type tumor spheroids
A high-throughput screen of multi-cell type tumor spheroids was designed to identify active combinations of targeted small molecules and PI3K pathway inhibitors. Complex spheroids include a stromal component modeled by human endothelial cells (HUVEC) and fibroblasts modeled by human mesenchymal stem cells (MSCs). The concentration ranges selected for each drug and investigational agent were based upon clinically achievable concentrations if the clinical Cmax of the agent was known.
Compounds. The drugs and investigational agents: inavolisib (NSC800729), alpelisib (NSC765974), duvelisib (NSC772469), copanlisib (NSC816437), ipatasertib (NSC767898), afuresertib (NSC778305), talazoparib (NSC767125), sapanisertib (NSC764658), selumetinib (NSC741078), tovorafenib (DAY101, NSC766906), vemurafenib (NSC761431), ravoxertinib (NSC781343), sotorasib (NSC818433), MRTX1133 (NSC 836407), abemaciclib (NSC 768073), palbociclib (NSC758247), venetoclax (NSC 766270), SY5609 (NSC837396), enzalutamide (NSC755605), and darolutamide (NSC825331), were obtained from the National Cancer Institute (NCI) Developmental Therapeutics Program Chemical Repository. The FDA-approved anticancer drug set is available from the NCI Developmental Therapeutics Program. […] The stock solutions were prepared in dimethyl sulfoxide (DMSO, Sigma-Aldrich, St. Louis, MO, cat. D2650) at 800-fold the tested concentration and stored at -70 degrees C prior to their use. All drugs and investigational agents were tested over a range starting from a high concentration at or near the clinical Cmax and decreasing in half-log increments. If the clinical Cmax for an agent had not been determined, the highest concentration tested was 10 microM.
Cell Culture. All cells were maintained in an incubator at 37 degrees C and 5% CO2 with 95% humidity. The PDC lines were cultured according to standard operating procedures established by the NCI PDMR (https://pdmr.cancer.gov/sops/default.htm). All PDCs were thawed and cultured in Matrigel-coated flasks prepared with a working solution of 1X Ham's F-12 nutrient mix, without supplementation (Invitrogen, Waltham, MA, cat. 11765054), 100 U/mL penicillin-streptomycin (Invitrogen, cat. 15140122), and 2.5% Matrigel (Corning Inc., Corning, NY, cat. 354248) for the first three passages. The 354836-022-R-J1-PDC, 475296-252-R-J1-PDC, and 997726-040-R-J2-PDC lines were cultured in 6A media, which includes advanced DMEM/F-12 (Thermo Fisher Scientific, cat. 12634028), 10 mM HEPES (Thermo Fisher Scientific, cat. 15630080), 1X GlutaMAX supplement (Thermo Fisher Scientific, cat. 35050061), 0.1 mg/mL primocin (InvivoGen, San Diego, CA, cat. ant-pm-2), 10% defined fetal bovine serum, heat inactivated (HyClone Laboratories Inc., Logan, UT, cat. SH30070.03HI), 50% L-WRN conditioned media (ATCC, cat. CRL-3276), 1.25 mM N-Acetyl-L-cysteine (Sigma-Aldrich, cat. A9165), 10 mM nicotinamide (Sigma-Aldrich, cat. N0636), 1X B-27 supplement (Thermo Fisher Scientific, cat. 17504044), 1X N-2 supplement (Thermo Fisher Scientific, cat. 17502048), and 10 microM Y-27632 dihydrochloride (Tocris Bioscience, Bristol, United Kingdom, cat. 1254). The 624824-186-R-J2-PDC line was cultured in 6C/Colon 1B media, which includes all 6A media components plus 50 ng/mL human EGF recombinant protein (Thermo Fisher Scientific, cat. PHG0311). […]

[1] = second compound 0.00316 µM, first compound 0.0316 µM
[2] = second compound 0.00316 µM, first compound 0.1 µM
[3] = second compound 0.00316 µM, first compound 0.316 µM
[4] = second compound 0.00316 µM, first compound 1 µM
[5] = second compound 0.00316 µM, first compound 3.16 µM
[6] = second compound 0.00316 µM, first compound 10 µM
[7] = second compound 0.01 µM, first compound 0.0316 µM
[8] = second compound 0.01 µM, first compound 0.1 µM
[9] = second compound 0.01 µM, first compound 0.316 µM
[10] = second compound 0.01 µM, first compound 1 µM
[11] = second compound 0.01 µM, first compound 3.16 µM
[12] = second compound 0.01 µM, first compound 10 µM
[13] = second compound 0.0316 µM, first compound 0.0316 µM
[14] = second compound 0.0316 µM, first compound 0.1 µM
[15] = second compound 0.0316 µM, first compound 0.316 µM
[16] = second compound 0.0316 µM, first compound 1 µM
[17] = second compound 0.0316 µM, first compound 3.16 µM
[18] = second compound 0.0316 µM, first compound 10 µM
[19] = second compound 0.1 µM, first compound 0.0316 µM
[20] = second compound 0.1 µM, first compound 0.1 µM
[21] = second compound 0.1 µM, first compound 0.316 µM
[22] = second compound 0.1 µM, first compound 1 µM
[23] = second compound 0.1 µM, first compound 3.16 µM
[24] = second compound 0.1 µM, first compound 10 µM
[25] = second compound 0.316 µM, first compound 0.0316 µM
[26] = second compound 0.316 µM, first compound 0.1 µM
[27] = second compound 0.316 µM, first compound 0.316 µM
[28] = second compound 0.316 µM, first compound 1 µM
[29] = second compound 0.316 µM, first compound 3.16 µM
[30] = second compound 0.316 µM, first compound 10 µM
[31] = second compound 1 µM, first compound 0.0316 µM
[32] = second compound 1 µM, first compound 0.1 µM
[33] = second compound 1 µM, first compound 0.316 µM
[34] = second compound 1 µM, first compound 1 µM
[35] = second compound 1 µM, first compound 3.16 µM
[36] = second compound 1 µM, first compound 10 µM
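Further: spheroids exposed to compounds for seven days before read-out.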

With `C=CC(=O)N1CCN(c2nc(=O)n(-c3c(C)ccnc3C(C)C)c3nc(-c4c(O)cccc4F)c(F)cc23)C(C)C1` (centres undefined) + CC(Nc1ccc2c(c1)OCCn1cc(N3C(=O)OCC3C(F)F)nc1-2)C(N)=O the IC50 (second compound 0.00316 µM) was greater than 10 µM, the IC50 (second compound 0.01 µM) was greater than 10 µM and the IC50 (second compound 0.0316 µM) was greater than 10 µM. It also gave an IC50 (second compound 0.1 µM) greater than 10 µM, an IC50 (second compound 0.316 µM) of less than 0.0316 µM and an IC50 (second compound 1 µM) of less than 0.0316 µM. The viability, T/C [1] was 94.8%, the viability, T/C [2] was 94.5% and the viability, T/C [3] was 99.9%. It also gave a viability, T/C [4] of 110%, a viability, T/C [5] of 114% and a viability, T/C [6] of 112%. For the same compound, the viability, T/C [7] was 86.8%, the viability, T/C [8] was 91.3% and the viability, T/C [9] was 101%. It also gave a viability, T/C [10] of 101%, a viability, T/C [11] of 116% and a viability, T/C [12] of 108%. For the same compound, the viability, T/C [13] was 80%, the viability, T/C [14] was 82.5% and the viability, T/C [15] was 89.5%. For the same compound, the viability, T/C [16] was 98.6%, the viability, T/C [17] was 90.4% and the viability, T/C [18] was 94.1%. It also gave a viability, T/C [19] of 60.2%, a viability, T/C [20] of 56.2% and a viability, T/C [21] of 61.4%. It also gave a viability, T/C [22] of 72.3%, a viability, T/C [23] of 77.7% and a viability, T/C [24] of 69.2%. It also gave a viability, T/C [25] of 37.1%, a viability, T/C [26] of 35.3% and a viability, T/C [27] of 34.9%. It also gave a viability, T/C [28] of 42%, a viability, T/C [29] of 39.6% and a viability, T/C [30] of 35.9%. It also gave a viability, T/C [31] of 21.4%, a viability, T/C [32] of 25.3% and a viability, T/C [33] of 23.2%. It also gave a viability, T/C [34] of 24.5%, a viability, T/C [35] of 22.5% and a viability, T/C [36] of 19.6%.

Work on `CC(Cn1ccc(-c2ccc(C#N)c(Cl)c2)n1)NC(=O)c1cc(C(C)O)[nH]n1` (centres undefined) + CC(Nc1ccc2c(c1)OCCn1cc(N3C(=O)OCC3C(F)F)nc1-2)C(N)=O yielded an IC50 (second compound 0.00316 µM) greater than 10 µM, an IC50 (second compound 0.01 µM) greater than 10 µM and an IC50 (second compound 0.0316 µM) greater than 10 µM. It also gave an IC50 (second compound 0.1 µM) greater than 10 µM, an IC50 (second compound 0.316 µM) of less than 0.0316 µM and an IC50 (second compound 1 µM) of less than 0.0316 µM. For the same compound, the viability, T/C [1] was 86.4%, the viability, T/C [2] was 92.7% and the viability, T/C [3] was 94%. It also gave a viability, T/C [4] of 97.8%, a viability, T/C [5] of 105% and a viability, T/C [6] of 107%. For the same compound, the viability, T/C [7] was 87.7%, the viability, T/C [8] was 90.9% and the viability, T/C [9] was 92.1%. It also gave a viability, T/C [10] of 91.5%, a viability, T/C [11] of 86.6% and a viability, T/C [12] of 95.1%. It also gave a viability, T/C [13] of 84.3%, a viability, T/C [14] of 76.1% and a viability, T/C [15] of 74.7%. The viability, T/C [16] was 84.5%, the viability, T/C [17] was 81.7% and the viability, T/C [18] was 82.6%. For the same compound, the viability, T/C [19] was 58.1%, the viability, T/C [20] was 56.3% and the viability, T/C [21] was 54.6%. It also gave a viability, T/C [22] of 54.4%, a viability, T/C [23] of 61.3% and a viability, T/C [24] of 56.5%. For the same compound, the viability, T/C [25] was 34.3%, the viability, T/C [26] was 32.5% and the viability, T/C [27] was 32.6%. It also gave a viability, T/C [28] of 36.2%, a viability, T/C [29] of 38.4% and a viability, T/C [30] of 34.6%. The viability, T/C [31] was 21.8%, the viability, T/C [32] was 21.7% and the viability, T/C [33] was 20.9%. For the same compound, the viability, T/C [34] was 26.6%, the viability, T/C [35] was 22.6% and the viability, T/C [36] was 24.1%.
